{
  "source": "patent US20040072824A1",
  "about": "“Methods and compositions for the treatment of cancer” (priority 2001, published 2004)",
  "key": {"[1]": {"system": "K562, U937, Jurkat, T47-D, MCF7, BT20 and 184B5 cell lines", "assay": "Cytotoxicity in malignant and immortalized cell lines (manual counting, Alamar assay)", "format": "cell-based", "details": "for cytotoxic activity: dilutions greater than 1:1,000, especially about 1:10,000; for cytotoxicity: dilutions of from 1:100 to 1:1,000, 48 and 144 hours after treatment", "experimental": "These four compounds were added at different concentrations to cultures of various malignant cell lines and normal cells. The cell lines used for these tests were the following:\nAll leukemic cell lines were grown and used in logarithmic phase. After one day of treatment, the cells were isolated, counted and diluted in a regular growth medium to provide the cell density of about 75×10^3 cells/ml for reading on plates at 48 hours after the treatment, and […] for reading at 144 hours after the treatment.\n(§1) Several dilutions of each compound tested were added to the wells (12 wells per plate, TPP), and 1 ml of cells from the parent solution was added per well after a line had been completed. The dilutions were made using the culture medium, and following dilutions were tested: control, which contained no compound of this invention; 1:100; 1:1,000; 1:2,000; 1:5,000; and 1:10,000. The starting concentrations for these dilutions were: 50 mg/ml for compound A; 10 mg/ml for compound B; 25 mg/ml for compound C; and 5 mg/ml for compound D. The results were analyzed by manual counting and Alamar reduced assay.\n(§2) The cells were grown on their respective propagation medium and seeded 24 hours before the compounds are added. The cells were trypsinized, and 50,000 cells/well and 10,000 cells/well were seeded in order to read the plates at 48 hours and 144 hours after being treated by the compounds, respectively.\n(§3) On the day of the treatment, the medium was replaced by 10 ml each of series dilution of the compounds, consisting of: control, which contained no compound of this invention; 1:100 dilution; 1:1,000 dilution; 1:2,000 dilution; and 1:5,000 dilution. The starting concentrations for these dilutions were: 50 mg/ml for compound A; 10 mg/ml for compound B; 25 mg/ml for compound C; and 5 mg/ml for compound D. The dilution was made using the growth medium.\nA tested compound is regarded as being active in cytotoxicity where the percentage of surviving cells after the treatment with the compound is less than 30%."}, "[2]": {"system": "lymphocytes from healthy donors", "assay": "Cytotoxicity on lymphocytes from healthy donors", "format": "cell-based, human", "details": "48 hours after treatment, even at 1:1,000 dilution; three healthy donors", "experimental": "as §1\nThe blood from healthy donors was collected on citrate and diluted 1:1 with 0.15M NaCl. The dilution (6 ml) was loaded onto 3 ml of lymphoprep® (Nycomed), and the mixture was centrifuged at 800 g for 30 minutes at room temperature. The white cells were isolated and washed with RPMI1640 and 10% FBS. The white cells were diluted to provide 450,000 cells/m in RPMI1640/10% FSB medium. The tests for the compounds of this invention were performed according to the same procedures described in Section 5.1.1."}, "LoVo cancer cells": {"system": "LoVo cancer cells", "assay": "Cytotoxicity on LoVo cancer cells", "format": "cell-based", "details": "LoVo colorectal adenocarcinoma cells", "experimental": "as §2, §3"}, "U937 cells [3]": {"system": "U937 cells", "assay": "Antineoplastic activity, U937 cells injected in scid/scid mice, treatment from day 1", "format": "in vivo", "details": "six mice", "experimental": "Ten million U937 cells were subcutaneously injected into scid/scid mice. One injection was carried out per each of the 6 mice tested per set. The excipient or the compounds tested were administered intraperitoneally on day 1, i.e., the day of U937 cell line inoculation, of the experiment. The excipients or compounds were administered once daily. The tumor sizes were measured on day 5, day 8, day 12, day 14 and day 19 after the injection."}, "TCTP": {"system": "TCTP", "assay": "TCTP expression in treated U937 cells (western blot)", "format": "cell-based", "details": "24 hours, various dilutions", "experimental": "U937 cells were treated with various dilutions of hydroxyzine, brompheniramine and promethazine for 24 hours as denoted in FIG. 23A. Starting concentrations were: 50 mg/ml for […] (“A”); 10 mg/ml for brompheniramine (“B”); and 25 mg/ml for promethazine (“C”). The proteins were isolated from these cells and loaded onto a gel for western blot analysis. A specific anti-TCTP (anti-HRF) antibody was used to visualize the location of TCTP. […] The level of actin in equal loading of extract was visualized by antiactin antibody (Santa Cruz Biotechnology). No substantial difference between the level of actin in treated and untreated cells was observed."}, "[4]": {"system": "Poly ADP-Ribose Polymerase (PARP)", "assay": "PARP cleavage in treated U937 cells (western blot)", "format": "cell-based", "details": "24 hours", "experimental": "U937 cells were treated with various concentrations of hydroxyzine and promethazine for 24 hours. The proteins were isolated from these cells and loaded onto a gel for a western blot analysis. A specific anti-PARP antibody was used to visualize the location of PARP."}, "[5]": {"system": "MDA-MB-231 (breast cancer line)", "assay": "Curative effects on palpable tumors, MDA-MB-231 cells in scid/scid mice", "format": "in vivo", "details": "11.25 mg/kg or 22.5 mg/kg daily once tumors palpable", "experimental": "(§4) In this series of experiments, effects of various compounds of the present invention on tumor development were tested using two protocols. The first protocol is directed to the testing of curative effects of these compounds in different cell lines. In this protocol, cancerous cells are inoculated to the animals, and the inoculated animals were left without any further treatment until the development of tumors. As soon as the tumors became palable (4 mm^3), the compounds of this invention were administered daily to the animals."}, "U937": {"system": "U937", "format": "in vivo", "details": "treatment from day 1, cells inoculated after more than 24 hours, daily administration", "experimental": "The second protocol was designed to test the preventive effects of the compounds of this invention on tumorigenesis. In this protocol, the animals have been treated with various compounds of the present invention on day 1. After more than 24 hours, tumoral cells were inoculated. The administration of the compounds of this invention was maintained daily. The cell line used for this test was U937."}, "U937 cells [6]": {"system": "U937 cells", "assay": "Curative effects on palpable tumors, U937 cells in scid/scid mice", "format": "in vivo", "details": "positive control, treated once tumors palpable", "experimental": "as §4, with “animals. Two different cell lines, i.e., U937 and MDA-MB-231 (breast cancer line), were used for this protocol to inoculate scid/scid mice.” for “animals.”"}, "[7]": {"system": "blastic cells from AML patients", "assay": "Inhibition of viability of fresh leukemic cells (trypan blue exclusion)", "format": "cell-based, human", "details": "Homo sapiens, day 3; for cytotoxicity at 100 µM: 10^-4 M; for cytotoxicity at 10 µM: 10^-5 M", "procedure,_shortened": "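Blasts from AML samples 1 to 5 (least to most differentiated) were incubated with or without anti-histamine derivatives, with Polaramine as negative control. Viable counts by trypan blue exclusion at day 3, with Wright-Giemsa morphology. Values are % growth inhibition versus negative control.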"}, "[8]": {"details": "72 h, MEAN over AML patients, read-out: In Vitro Percent Inhibition of Viability, MEAN"}, "[9]": {"details": "72 h, patient ID 4, FAB AML2, read-out: In Vitro Percent Inhibition of Viability"}, "[10]": {"details": "72 h, patient ID 14, FAB AML5, read-out: In Vitro Percent Inhibition of Viability"}, "[11]": {"details": "AML1, 72 h, patient ID 1, FAB AML1, read-out: In Vitro Percent Inhibition of Viability"}},
  "note": "Where a name gives a salt, the structure may show the parent alone. Read-outs that look alike come from different tables or passages of the source.",
  "data": [
    {"compound": "CC(CN1c2ccccc2Sc2ccccc21)N(C)C", "note": "(stereo not drawn) [promethazine]", "values": [
      {"measurement": "cytotoxic activity", "setting": "[1]", "value": "little cytotoxic activity"},
      {"measurement": "cytotoxicity", "setting": "[1]", "value": "very good cytotoxicity"},
      {"measurement": "surviving cell counts", "setting": "[2]", "value": "substantial"},
      {"measurement": "growth / resistance of LoVo cells", "setting": "LoVo cancer cells", "value": "unaffected"},
      {"measurement": "growth / resistance of LoVo cells", "setting": "LoVo cancer cells; listed as C", "value": "totally resistant"},
      {"measurement": "mice that developed a tumor", "setting": "U937 cells [3]; 11.25 mg/kg daily intraperitoneally", "value": "one out of six"},
      {"measurement": "expression of TCTP", "setting": "TCTP", "value": "inhibit the expression of TCTP"},
      {"measurement": "PARP cleavage (induction of apoptosis)", "setting": "[4]", "value": "cleave PARP"},
      {"measurement": "tumor volume", "setting": "[5]", "value": "The same is also true for certain animals"},
      {"measurement": "tumor growth compared to the negative control", "setting": "U937", "value": "decrease in tumor growth"}
    ]},
    {"compound": "Nc1ccn([C@@H]2O[C@H](CO)[C@@H](O)[C@@H]2O)c(=O)n1", "note": "[ARA-C, cytarabine]", "values": [
      {"measurement": "mice that developed a tumor", "setting": "U937 cells [3]; 100 mg/kg", "value": "none of the six"},
      {"measurement": "tumor development", "setting": "U937 cells [6]", "value": "no tumor development"}
    ]},
    {"compound": "OCCOCCN1CCN(C(c2ccccc2)c2ccc(Cl)cc2)CC1", "note": "(stereo not drawn) [hydroxyzine, hydroxyzine dihydrochloride]", "values": [
      {"measurement": "cytotoxic activity", "setting": "[1]", "value": "little cytotoxic activity"},
      {"measurement": "cytotoxicity", "setting": "[1]", "value": "very good cytotoxicity"},
      {"measurement": "surviving cell counts", "setting": "[2]", "value": "substantial"},
      {"measurement": "growth / resistance of LoVo cells", "setting": "LoVo cancer cells; dihydrochloride", "value": "unaffected"},
      {"measurement": "growth / resistance of LoVo cells", "setting": "LoVo cancer cells; listed as A, dihydrochloride", "value": "totally resistant"},
      {"measurement": "expression of TCTP", "setting": "TCTP", "value": "inhibit the expression of TCTP"},
      {"measurement": "PARP cleavage (induction of apoptosis)", "setting": "[4]", "value": "cleave PARP"},
      {"measurement": "cytotoxicity at 100 µM", "setting": "[7]; [8]", "value": 55, "unit": "%"},
      {"measurement": "cytotoxicity at 10 µM", "setting": "[7]; [8]", "value": 12, "unit": "%"},
      {"measurement": "cytotoxicity at 100 µM", "setting": "[7]; [9]", "value": 44, "unit": "%"},
      {"measurement": "cytotoxicity at 10 µM", "setting": "[7]; [9]", "value": 9, "unit": "%"},
      {"measurement": "cytotoxicity at 100 µM", "setting": "[7]; [10]", "value": 45, "unit": "%"},
      {"measurement": "cytotoxicity at 10 µM", "setting": "[7]; [10]", "value": 18, "unit": "%"},
      {"measurement": "cytotoxicity at 100 µM", "setting": "[7]; [11]", "value": 77, "unit": "%"},
      {"measurement": "cytotoxicity at 10 µM", "setting": "[7]; [11]", "value": 10, "unit": "%"}
    ]}
  ]
}
